Data as given in article PMC10305181, “A VEGFB-Based Peptidomimetic Inhibits VEGFR2-Mediated PI3K/Akt/mTOR and PLCγ/ERK Signaling and Elicits Apoptotic, Antiangiogenic, and Antitumor Activities” (Pharmaceuticals, 2023).
Bridge positions count the residues as written; N and C are the ends. Peptide text beside a SMILES is read from it.

What was measured:
4T1 cells = experiment: TUNEL assay, 4T1 cells; type: cell-based, murine; conditions: 0.40 μM, n = 3, p = 0.0002
Description: Periodic boundary conditions were used, and bonds were restrained by applying the LINCS algorithm to their equilibrium position. Initial structures were solvated with three-point model water molecules in a cubic box of 1.0 nm to fully cover the protein system in water, following periodic boundary conditions (PBC). The produced system for each peptide was neutralized through the “genion tool” plugin of the GROMACS package by adding ions Na+ and Cl−. Then, the system was minimized for 50000 iterations using the steepest descent (SD) algorithm and using velocity rescaling (modiﬁed Berendsen) temperature coupling and Parrinello-Rahman pressure coupling methods, simulated under an isothermal-isobaric ensemble (NPT) for 5 ns at a constant temperature, the pressure of 300 K, and 1 atm, respectively. The NVT and NPT equilibration was carried out for 50000 steps. The minimization and equilibration procedures were executed, and finally, one system of the peptide was subjected to a 200 ns production run of MD simulations utilizing 2 fs as the time step and coordinates of all atoms were recorded in the form of .trr GROMACS trajectory ﬁle every 10 ps.
2 × 10^3 HUVE or 4T1 cells were cultured in DMEM and RPMI-1640 media, respectively, supplemented with 10% (v/v) FBS overnight. Then, the cells were incubated in the media supplemented with 5% FBS, with PBS or C-VGB3 (0.40 μM). […]

HUVECs = experiment: tube formation assay on Matrigel, HUVECs; type: cell-based, human; conditions: 0.40 μM; 12 h; VEGF 20 ng·mL^−1; n = 3; p < 0.001
Experimental: Figure 4 Inhibition of EC proliferation and tubulogenesis by C-VGB3 through abrogation of VEGFR2-mediated signaling pathways. (A) MTT assay was performed to investigate C-VGB3 effect on the proliferation of ECs. C-VGB3 (0–0.91 μM) was used with (20 ng·mL^−1) or without VEGF. The control cells were treated with no peptide. After 24 and 48 h, the absorbance was measured at 570 nm utilizing an ELISA plate reader (Space Fax 2100, Awareness, Westport, CT, USA). Error bars indicate ± SEM. n = 3; * p = 0.02, ** p = 0.001, *** and ### p = 0.0001, **** and #### p < 0.0001, ns = not significant; one-way ANOVA. (B) The anti-tubulogenesis effect of C-VGB3 in VEGF (20 ng·mL^−1)-induced HUVECs. Image analysis performed by Wimasis image analysis software is illustrated in the bottom panel. Error bars indicate ±SEM. n = 3; *** 0.0004 ≤ p ≤ 0.0001; unpaired Student’s t-test. To evaluate the mechanism by which C-VGB3 diminished cell proliferation and tube formation, Western blot analysis was performed for HUVECs. […] Error bars indicate ± SEM. n = 3; * p = 0.02, ** p = 0.001, *** p = 0.0001, **** p < 0.0001; one-way ANOVA. […] Error bars indicate ± SEM. n = 3; * p = 0.02, ** p = 0.001, **** p < 0.0001; one-way ANOVA.
Tube formation of HUVECs was assayed on the Matrigel. After pre-labeling with PKH26 cell tracker (Sigma-Aldrich, St. Louis, MO, USA) HUVECs were plated into 24-well plates pre-coated with Matrigel Basement Membrane Matrix (BD Biosciences, San Jose, CA, USA). C-VGB3 (0.40 μM) was added to the medium, and images were manually captured after 12 h using an Olympus BX-51 fluorescence microscope. Quantitative analyses were performed by Wimasis online software.

Ki67-positive cells = experiment: Ki67 immunohistochemistry of 4T1 tumors (proliferation); type: in vivo, murine; conditions: 0.2 mg·kg^−1 i.v.; n = 3; p = 0.04 vs control
Experimental: Figure 2 Loop formation is important for the antitumor activity of VGB3. (A) To investigate the efficacy of VGB3 peptides in vivo 13 days after transplantation of a 4T1 murine MCT into female BALB/c mice (the tumor volume ~150 mm^3), the treatment groups received 0.2 mg·kg^−1 (once every 2 days, i.v.) of either the C-VGB3 or L-VGB3 and the control group received PBS for 20 days. Error bars denote ± SEM. n = 6; **** p < 0.0001, ns = not significant; two-way ANOVA. (B) Investigation of C-VGB3 and L-VGB3 effects on mice weight. […] (C,D) Immunohistochemical (IHC) analyses of CD31 and Ki67 for the C-VGB3-, L-VGB3- and PBS-treated tumors. For IHC staining, the sections of tumor tissues were incubated with the primary mouse monoclonal antibodies for CD31 (1:2000 (v/v)) and Ki67 (5 µg·mL^−1). […] Photographs were taken at 40× magnification. Error bars denote ± SEM. n = 3; * 0.02 ≤ p ≤ 0.04, ns = not significant; one-way ANOVA.
For immunohistochemistry staining, deparaffinized tumor sections were incubated overnight at 4 °C with mouse monoclonal primary anti-Ki67 (5 µg·mL^−1) or anti-CD31 (1:2000 (v/v)). The antigens were detected using 3,3-diaminobenzidine. All images were captured and analyzed with an Olympus BX51 microscope (Olympus America, New York, NY, USA).

CC(C)C[C@@H]1NC(=O)CNC(=O)[C@H](CC(=O)O)NC(=O)[C@H](CC(=O)O)NC(=O)[C@@H]2CCCN2C(=O)[C@@H]2CCCN2C(=O)[C@H](CCCNC(=N)N)NC(=O)[C@@H](NC(=O)[C@@H](N)CCC(=O)O)CSSC[C@@H](C(=O)O)NC1=O [C-VGB3] (H-ECRPPDDGLC-OH; disulfide 2-10)
TUNEL fluorescent labeling (4T1 cells): fluorescent-labeled more than control cells | decrease in tube branching points (HUVECs): 81.46% | decrease in tube length (HUVECs): 44.37% | decrease in tube numbers (HUVECs): 58.64% | decrease in Ki67-positive cells (Ki67-positive cells): 60%
